Measured values: patent EP2401611B1, “IMPROVED METHODS FOR IDENTIFICATION” (Cambridge Enterprise Limited, priority 2009, dated 2010)
Read-outs that look alike come from different tables or passages of the source.

Columns and labels:
THP-1 cells = test: MCP-1 induced THP-1 cell migration (Transwell) assay; assay type: cell-based, human; conditions: for EC50 / Emax: Homo sapiens, THP-1
Procedure: Leukocyte migration was measured using the 96-well format micro Transwell^RTM assay system from Neuroprobe (Gaithersburg, MD, USA). In principle, this assay consists of two chambers separated by a porous membrane. The chemoattractant is placed in the lower compartment and the cells are placed in the upper compartment. After incubation for a period at 37°C the cells move towards the chemoattractant, and the number of cells in the lower compartment is proportional to the chemoattractant activity (relative to a series of controls).
The method was performed essentially as previously described (Reckless & Grainger (1999) Biochem. J. 340:803-11).
First, the cell suspension to be placed in the upper compartment was prepared. The THP-1 cells were pelleted by centrifugation (770 x g; 4 mins) and washed with Geys Balanced Salt Solution with 1mg/ml BSA (GBSS + BSA). This wash was then repeated, and the cells re-pelleted before being resuspended in a small volume of GBSS + BSA for counting, for example using a standard haemocytometer.
The volume of GBSS + BSA was then adjusted depending on the number of cells present so that the cells were at final density of 4.45 x 10^6 cells per ml of GBSS + BSA. This ensured that there were 100,000 THP-1 cells in each 25µl of the solution to be placed in the upper chamber of the plate.
The suspension of THP-1 cells at 4.45 x 10^6 cells/ml was divided into three pots. To one pot the BSCI was added at an appropriate final concentration, in an appropriate vehicle (for example (S)- 3-(2',2'-dimethylpropanoylamino)-tetrahydropyridin-2-one was added at 1nM from a stock solution in GBSS). To the second pot, the BSCI was added at the same concentration as in the first pot, but additionally the sstr2 antagonist was also added (for example BIM 23454 [Tulipano et al. (2002) 143:1218-24] or BIM 23627 were added at 66nM final concentration from a stock solution in GBSS). To the third pot, GBSS + BSA plus vehicle as appropriate was added so that the volumes in three pots are equal, acting as a control.
Next, the chemoattractant solution to be placed in the lower compartment was prepared. […]. Note that, as recommended by Frow et al (Med. Res. Rev. 24:276-98) this is the concentration of MCP-1 which induces maximal migration in this system. This solution was divided into three pots, as for the cell suspension. To one pot, the BSCI was added to the same final concentration as was added to the cell suspension, in the second pot the BSCI and the sstr2 antagonist were both added at the same concentration as previously added to the cell suspension, while to the remaining pot GBSS + BSA plus vehicle as appropriate was added so that the volumes in the three pots were equal. Note that the volume of liquid that needs to be added to make the addition of the BSCI and the sstr2 antagonist compounds needs to be taken into account, when establishing the final concentration of MCP-1 in the solution for the lower compartment and the final concentration of cells in the upper compartment.
Once the chemoattractant solutions for the lower wells and cell solutions for the upper chambers were prepared, the migration chamber was assembled. 29 µl of the appropriate chemoattractant solution was placed into the lower well of the chamber. Assays were performed with at least triplicate determinations of each condition. Once all the lower chambers were filled, the porous membrane was applied to the chamber in accordance with the manufacturer's instructions. Finally, 25 µl of the appropriate cell solution was applied to each upper chamber. A plastic lid was placed over the entire apparatus to prevent evaporation.
The assembled chamber was incubated at 37 °C, 5% CO2, for 2 hours. A suspension of cells in GBSS + BSA was also incubated under identical conditions in a tube: these cells were used to construct a standard curve for determining the number of cells that migrated to the lower chamber under each condition. […]

sstr2 = sstr2 (Homo sapiens, UniProt P30874); test: [3H]-BN83250 equilibrium binding to THP-1 cells
Chain of sstr2 (P30874 whole entry): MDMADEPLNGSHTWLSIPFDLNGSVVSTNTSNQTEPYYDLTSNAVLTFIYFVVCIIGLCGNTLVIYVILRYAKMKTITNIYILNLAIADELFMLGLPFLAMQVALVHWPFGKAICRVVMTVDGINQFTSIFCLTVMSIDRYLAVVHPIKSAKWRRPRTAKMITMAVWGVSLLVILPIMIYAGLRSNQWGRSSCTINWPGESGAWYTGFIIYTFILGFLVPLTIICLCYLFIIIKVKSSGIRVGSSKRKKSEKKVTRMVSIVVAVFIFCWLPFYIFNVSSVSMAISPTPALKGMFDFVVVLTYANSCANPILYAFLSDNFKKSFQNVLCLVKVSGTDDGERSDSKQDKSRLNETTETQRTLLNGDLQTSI
Procedure: We have investigated the molecular interaction between BSCIs and the sstr2 receptor using conventional equilibrium binding studies employing labelled BSCI ligands.
For the analysis of binding, individual reactions were set up (in triplicate for each condition), with 1x10^6 THP-1 cells in Gey's Balanced Salt Solution, 10nM [^3H]-BN83250 (at 50 Ci/mmol) and various concentrations of (S)-3(2'2'-dimethylpropionoylamino)-tetrahydropyridin-2-one (10pM to 10µM). Excess (100µM) unlabelled BN83250 was used to determine the level of non-specific binding. After 2 hours at 4°C (conditions previously shown to achieve equilibrium binding, and which prevent uptake of the radioligand that would result in an over-estimate of binding) excess label was washed away by centrifugation (3 washes with 5ml of Gey's Balanced Salt Solution) and the bound radioactivity was determined by scintillation counting of the solubilised cell pellet.

[1] = Table 3, read-out: Human chemokine-induced THP-1 migration assay ED50
[2] = Table 3, read-out: Human chemokine-induced THP-1 migration assay Max effect (%)

| Compound | "Classical" : "BSCI" potency ratio Human (THP-1 cells) | EC50 (THP-1 cells; [1]) | Emax (THP-1 cells; [2]) | EC50 (THP-1 cells; Table 5, library screening hits, read-out: Chemokine-induced THP-1 cell migration assay ("BSCI" target) ED50) | Emax (THP-1 cells; Table 5, read-out: Chemokine-induced THP-1 cell migration assay ("BSCI" target) Max Effect (%)) | EC50 (THP-1 cells; read-out: ED50 for inhibition of chemokine-induced THP-1 cell migration) | RATIO (THP-1 cells; Table 5, THP-1 migration ED50 versus insulin suppression ED50) | Kd (sstr2) | potency as BSCI relative to BN83253 (THP-1 cells; Fig. 5 compared with Fig. 4) | "Classical" : "BSCI" potency ratio Human (THP-1 cells; Table 3, THP-1 migration ED50 versus Panc-2H4 insulin suppression ED50) | inhibition of MCP-1 induced cell migration (in words) (THP-1 cells; figure legends and text) | inhibition of BN83250 binding (sstr2; 1nM and above) | Hill Slope (sstr2; competition with [3H]-BN83250) | EC50 (sstr2; read-out: ED50 for competition with [3H]-BN83250 binding at sstr2, 10nM [3H]-BN83250) |
| --- | --- | --- | --- | --- | --- | --- | --- | --- | --- | --- | --- | --- | --- | --- |
| CCCCCCCCCCC(C)(C)C(=O)N[C@H]1CCCCNC1=O [BN83250, (S)-3-(2',2'-dimethyldodecanoyl)amino-caprolactam] | <0.00009 | 0.09 nM | 100% | 0.09 nM | 100% | < 1 nM | <0.00009 | ~80 nM |  |  |  |  |  |  |
| CC(C)(C)C(=O)N[C@H]1CCCNC1=O [Valerolactam, (S)-3-(2'2'-dimethylpropionoylamino)-tetrahydropyridin-2-one] |  | 0.05 nM | 100% |  |  |  |  |  | 20-50 fold | <0.00005 | inhibits MCP-1 induced cell migration in a dose-dependent manner | 80-90% | approximately -1.0 | ~0.05 nM |
